The numbers were not newly measured in patent publication US6485659B1, “Electrical apparatus with dielectric fluid blend of polyalphaolefins and polyol esters or triglycerides” (priority 1995, dated 2002), which cites them from elsewhere.

Where two headings read alike, the source gives them in different places.

The test system of series [1] is rats. The following applies: for chronic toxicity findings: rat, in vivo, po.
Series [2] has as its system rats. The following applies: rat, in vivo.
For series [3] the following is noted: within 7 days; Nippon.

Regarding phenyl-ortho-tolyl-ethane [POXE], the chronic toxicity findings result is “showed lower weight gain, and liver/kidney enlargement (Dielectrol - Saperstein and Faeder.)” in series [1]; <146 mg/kg/day showed little to no effects. (Nippon Oil/Saperstein and Faeder) in series [1] (146 mg/kg/day). In addition, the mortality entry in series [1] (rats, oral, 0.58 ml/kg/day for 1 month, Dielectrol, Saperstein and Faeder) is given as “In rats, 0.58 ml/kg/day for 1 month yielded 50% mortality. 0.146 ml/kg/day for 3-6 months”. For the same substance, in series [2], the LD50 in rats was 2.3 ml/kg (Dielectrol III, Saperstein and Faeder article). Further, the biodegradation in series [3] is reported as 100% biodegradation within 7 days (Nippon).
